Patent US7320996B2, “Indolinone protein kinase inhibitors and cyclooxygenase inhibitors for use in combination therapy for the treatment of cancer” (Sugen, Inc, priority 2001, dated 2008)
Values joined by “and” are separate entries in the source; they are usually repeats but may differ in a detail not shown here. Equal entries are not always repeated. Where two headings read alike, the source gives them in different places.

Columns and labels:
[1] = system: HT-29 human colon cancer cells; test: HT-29 Model; format: in vivo, nude mice
Method: Mice were injected subcutaneously in the left paw (1×10^6 tumor cells suspended in 30% Matrigel) and tumor volume was evaluated using a phlethysmometer twice a week for 30-60 days. Implantation of human colon cancer cells (HT-29) into nude mice produces tumors that will reach 0.6-2 ml between 30-50 days. […] The data are expressed as the mean+/−SEM. Student's and Mann-Whitney tests were used to assess differences between means using the InStat software package.
The efficacy of both agents were determined by measuring tumor volume.

[2] = system: Lewis Lung tumors; test: Lewis Lung Model; format: in vivo, mice
Method: Mice were injected subcutaneously in the left paw (1×10^6 tumor cells suspended in 30% Matrigel) and tumor volume was evaluated using a phlethysmometer twice a week for 30-60 days. […] The data are expressed as the mean+/−SEM. Student's and Mann-Whitney tests were used to assess differences between means using the InStat software package. […] Analysis of lung metastasis was done in all the animals by counting metastasis in a stereomicroscope and by histochemical analysis of consecutive lung sections.

[3] = system: SF763T tumors; test: SF763T subcutaneous xenograft; format: in vivo, athymic mice
[4] = system: HT29 cells; test: cells; conditions: Homo sapiens, HT-29
[5] = system: B16-F1 cells; test: B16-F1 mouse melanoma lung colonization model; format: in vivo, athymic mice; conditions: 80 mg/kg/day oral for 24 days; P <0.001
Description: In addition to supporting the sustained growth of solid primary tumors, angiogenesis is also an essential component supporting the development of disseminated disease due to metastasis from the primary tumor. […] In this model, B16-F1 cells inoculated intravenously via the tail vein of athymic mice colonize the lungs and form tumors. […] .
Briefly, the results shown in Table 8 were obtained using athymic mice that had been inoculated with B16-F1 tumor cells (5×10^5 cells/mouse) via the tail vein. […] . At the end of the treatment period, the mice were sacrificed and their lungs removed and weighed. […] .

[6] = system: Colo205 tumors; test: Colo205 subcutaneous xenograft
[7] = system: A549 cells; test: cells; conditions: Homo sapiens
[8] = system: NCI-H460 cells; test: cells; conditions: Homo sapiens
[9] = system: HUVECs; test: VEGF-mediated HUVEC survival (PARP cleavage); format: cell-based, human; conditions: PARP cleavage as readout for apoptosis
Description: In these experiments, cleavage of the caspase 3 substrate poly-ADP-ribosyl polymerase (PARP) was used as a readout for apoptosis.

[10] = system: A431 tumors
[11] = biological target: T1, c-kit (Homo sapiens, UniProt P10721); test: SCF-stimulated c-kit phosphorylation in AML blasts of patients; format: cell-based; conditions: AML blasts from peripheral blood of patients
T1 construct: was determined using MO7E cells that express this receptor; endogenous in cells; host or cells: MO7E

[12] = system: NCI-H460 tumors; test: NCI-H460 subcutaneous xenograft
[13] = system: SF767T cells; test: cells; conditions: Homo sapiens
[14] = biological target: EGFR (Homo sapiens, UniProt P00533); test: cell EGF assay; format: cell-based
Method: Several of the assays described herein are performed in an ELISA (Enzyme-Linked Immunosorbent […]) format (Voller, et al, 1980, “Enzyme-Linked Immunosorbent Assay,” Manual of Clinical Immunology, 2d ed., Rose and Friedman, Am. Soc. Of Microbiology, Washington, D.C., pp. 359-371). The general procedure is as follows: a compound of Formula (I) is introduced to cells expressing the test kinase, either naturally or recombinantly, for a selected period of time after which, if the test kinase is a receptor, a ligand known to activate the receptor is added. The cells are lysed and the lysate is transferred to the wells of an ELISA plate previously coated with a specific antibody recognizing the substrate of the enzymatic phosphorylation reaction. Non-substrate components of the cell lysate are washed away and the amount of phosphorylation on the substrate is detected with an antibody specifically recognizing phosphotyrosine compared with control cells that were not contacted with a test compound.
Specifically, the results shown indicate the concentration of a test compound needed to cause a 50% reduction of the activity of the target PTK. Bioassays which have been or can be used to evaluate compounds are described in detail below.

[15] = biological target: T2, EGFR (A431 cell lysate) (Homo sapiens, UniProt P00533); test: EGFR bioassay, ELISA; format: biochemical; conditions: read-out: bio EGF IC50
T2 construct: A431 cell lysate (SUGEN, Inc.); host or cells: A431
Method: This assay is used to the in vitro kinase activity of FGF1-R in an ELISA assay.
Corning 96-well Elisa plates. • 2. SUMOL1 monoclonal anti-EGFR antibody (SUGEN, Inc.). • 3. PBS • 4. TBST Buffer • 5. Blocking Buffer: for 100 ml, mix 5.0 g Carnation Instant Non-fat Milk® with 100 ml of PBS. • 6. A431 cell lysate (SUGEN, Inc.). • 7. TBS Buffer: • 8.
bring to 1 liter total volume with dH2O. • 9. […] This reagent should be made up immediately prior to use and kept on ice. • 10. 1.0 mM MnCl2. • 11. […] Prepare just prior to use, keep on ice. • 12. NUNC 96-well V bottom polypropylene plates. • 13. EDTA. • 14. Rabbit polyclonal anti-phosphotyrosine serum (SUGEN, Inc.). • 15. Goat anti-rabbit IgG peroxidase conjugate (Biosource Cat. No. ALI0404). • 16. ABTS. • 17. 30% Hydrogen peroxide. • 18. ABTS/H2O2 • 19. 0.2 M HCl. Procedure: • 1. Coat Corning 96 well ELISA plates with 0.5 μg SUMO1 in 100 μl PBS per well, store overnight at 4° C. • 2. Remove unbound SUMO1 from wells by inverting plate to remove liquid. Wash 1×with dH2O. Pat the plate on a paper towel to remove excess liquid. • 3. Add 150 μl of Blocking Buffer to each well. Incubate, with shaking, for 30 min. at room temperature. • 4. Wash plate 3×with deionized water, then once with TBST. Pat plate on a paper towel to remove excess liquid and bubbles. • 5. Dilute lysate in PBS (7 μg lysate/100 μl PBS). • 6. Add 100 μl of diluted lysate to each well. Shake at room temperature for 1 hr. • 7. Wash plates as in 4, above. • 8. Add 120 μl TBS to ELISA plate containing captured EGFR. • 9. […] Add 13.5 μl diluted test compound to ELISA plate. To control wells, add 13.5 μl TBS in 10% DMSO. • 11. Incubate, with shaking, for 30 minutes at room temperature. • 12. Add 15 μl phosphorylation mix to all wells except negative control well. Final well volume should be approximately 150 μl with 3 μM ATP/5 mM MnCl2 final concentration in each well. Incubate with shaking for 5 minutes. • 13. Stop reaction by adding 16.5 μl of EDTA solution while shaking. Shake for additional 1 min. • 14. Wash 4×with deionized water, 2×with TBST. • 15. Add 100 μl anti-phosphotyrosine (1:3000 dilution in TBST) per well. Incubate, with shaking, for 30-45 min. at room temperature. • 16. Wash as in 4, above. • 17. […] Incubate with shaking for 30 min. at room temperature. • 18. Wash as in 4, above. • 19. Add 100 μl of ABTS/H2O2 solution to each well. • 20. Incubate 5 to 10 minutes with shaking. Remove any bubbles. • 21. If necessary, stop reaction by adding 100 μl 0.2 M HCl per well. • 22.

[16] = biological target: T3, HER-2 kinase (EGFr/HER-2 chimera/3T3-C7 cell line) (Homo sapiens, UniProt P04626); test: Cellular HER-2 kinase assay, whole-cell ELISA; format: cell-based; conditions: read-out: Her2 Kinase IC50
T3 construct: fused on or other part: EGFR extracellular part, stimulated by EGF and captured by the anti-EGFR antibody SUMO1; P00533 (Epidermal growth factor receptor)
Method: This assay is used to measure HER-2 kinase activity in whole cells in an ELISA format.
Fetal Bovine Serum (FBS, GIBCO Catalog #16000-044), heat inactivated in a water bath for 30 min. at 56° C. • 3. […] PBS. • 9. […] Corning 96-well ELISA Plates. • 12. NUNC 96-well V bottom polypropylene plates. • 13. […] SUMO 1: monoclonal anti-EGFR antibody (SUGEN, Inc.). • 15. TBST Buffer. • 16. Blocking Buffer: 5% Carnation Instant Milk® in PBS. • 17. […] Suspend powder in 100 uL of 10 mM HCl. Add 100 uL 10 mM NaOH. Add 800 uL PBS and transfer to an Eppendorf tube, store at −20° C. until ready to use. • 18. […] EDTA. • 20. Na3VO4. […] Boil in microwave for one minute (solution becomes clear). • Cool to room temperature. Adjust pH to 10. Repeat heating/cooling cycle until pH remains at 10. • 21. 200 mM Na4P2O7. • 22. Rabbit polyclonal antiserum specific for phosphotyrosine (anti-Ptyr antibody, SUGEN, Inc.). • 23. Affinity purified antiserum, goat anti-rabbit IgG antibody, peroxidase conjugate (Biosource Cat #ALI0404). • 24. ABTS Solution. • 25. 30% Hydrogen peroxide solution. • 26. ABTS/H2O2. • 27. 0.2 M HCl. Procedure: • 1. Coat Corning 96 well ELISA plates with SUMO1 at 1.0 ug per well in PBS, 100 ul final volume/well. Store overnight at 4° C. • 2. On day of use, remove coating buffer and wash plate 3 times with dH2O and once with TBST buffer. All washes in this assay should be done in this manner, unless otherwise specified. • 3. Add 100 ul of Blocking Buffer to each well. Incubate plate, with shaking, for 30 min. at room temperature. Just prior to use, wash plate. • 4. Use EGFr/HER-2 chimera/3T3-C7 cell line for this assay. • 5. Choose dishes having 80-90% confluence. Collect cells by trypsinization and centrifuge at 1000 rpm at room temperature for 5 min. • 6. Resuspend cells in starve medium and count with trypan blue. Viability above 90% is required. Seed cells in starve medium at a density of 2,500 cells per well, 90 ul per well, in a 96 well microtiter plate. Incubate seeded cells overnight at 37° under 5% CO2. • 7. Start the assay two days after seeding. • 8. Test compounds are dissolved in 4% DMSO. Samples are then further diluted directly on plates with starve-DMEM. Typically, this dilution will be 1:10 or greater. […] Incubate at 37° C. for 10 min. • 13. Remove test compound, EGF, and DMEM. Wash cells once with PBS. • 14. Transfer HNTG* to cells, 100 ul per well. Place on ice for 5 minutes. • Meanwhile, remove blocking buffer from ELISA plate and wash. • 15. Scrape cells from plate with a micropipettor and homogenize cell material by repeatedly aspirating and dispensing the HNTG* lysis buffer. Transfer lysate to a coated, blocked, washed ELISA plate. Or, use a Costar transfer cartridge to transfer lysate to the plate. • 16. Incubate, with shaking, at room temperature for 1 hr. • 17. Remove lysate, wash. Transfer freshly diluted anti-Ptyr antibody (1:3000 in TBST) to ELISA plate, 100 ul per well. • 18. Incubate, with shaking, at room temperature, for 30 min. • 19. Remove anti-Ptyr antibody, wash. Transfer freshly diluted BIOSOURCE antibody to ELISA plate (1:8000 in TBST, 100 ul per well). • 20. Incubate, with shaking, at room temperature for 30 min. • 21. Remove BIOSOURCE antibody, wash. Transfer freshly prepared ABTS/H2O2 solution to ELISA plate, 100 ul per well. • 22. […] Remove any bubbles. • 23. Stop reaction with the addition of 100 ul of 0.2M HCl per well. • 24.

[17] = biological target: T4, PDGFR-β (NIH 3T3 cell lysate) (Homo sapiens, UniProt P09619); test: PDGFR bioassay, ELISA; format: biochemical; conditions: read-out: bio PDGF IC50
T4 construct: host or cells: NIH 3T3
Method: Corning 96-well Elisa plates • 2. 28D4C10 monoclonal anti-PDGFR antibody (SUGEN, Inc.). • 3. PBS. • 4. TBST Buffer. • 5. Blocking Buffer (same as for EGFR bioassay). • 6. PDGFR-β expressing NIH 3T3 cell lysate (SUGEN, Inc.). • 7. TBS Buffer. • 8. TBS+10% DMSO. • 9. ATP. • 10. MnCl2. • 11. Kinase buffer phosphorylation mix: for 10 ml, mix 250 μl 1M TRIS, 200 μl 5M NaCl, 100 μl 1M MnCl2 and 50 μl 100 mM Triton X-100 in enough dH2O to make 10 ml. • 12. NUNC 96-well V bottom polypropylene plates. • 13. EDTA. • 14. Rabbit polyclonal anti-phosphotyrosine serum (SUGEN, Inc.). • 15. Goat anti-rabbit IgG peroxidase conjugate (Biosource Cat. No. ALI0404). • 16. ABTS. • 17. Hydrogen peroxide, 30% solution. • 18. ABTS/H2O2. • 19. 0.2 M HCl. Procedure: • 1. Coat Corning 96 well ELISA plates with 0.5 μg 28D4C10 in 100 μl PBS per well, store overnight at 4° C. • 2. Remove unbound 28D4C10 from wells by inverting plate to remove liquid. • Wash 1×with dH2O. Pat the plate on a paper towel to remove excess liquid. • 3. Add 150 μl of Blocking Buffer to each well. Incubate for 30 min. at room temperature with shaking. • 4. Wash plate 3×with deionized water, then once with TBST. Pat plate on a paper towel to remove excess liquid and bubbles. • 5. Dilute lysate in HNTG (10 μg lysate/100 μl HNTG). • 6. Add 100 μl of diluted lysate to each well. Shake at room temperature for 60 min. • 7. Wash plates as described in Step 4. • 8. Add 80 μl working kinase buffer mix to ELISA plate containing captured PDGFR. • 9. […] Add 10 μl diluted test compound to ELISA plate. To control wells, add 10 μl TBS+10% DMSO. Incubate with shaking for 30 minutes at room temperature. • 11. Add 10 μl ATP directly to all wells except negative control well (final well volume should be approximately 100 μl with 20 μM ATP in each well.) Incubate 30 minutes with shaking. • 12. Stop reaction by adding 10 μl of EDTA solution to each well. • 13. Wash 4×with deionized water, twice with TBST. • 14. Add 100 μl anti-phosphotyrosine (1:3000 dilution in TBST) per well. Incubate with shaking for 30-45 min. at room temperature. • 15. Wash as in Step 4. • 16. […] Incubate with shaking for 30 min. at room temperature. • 17. Wash as in Step 4. • 18. Add 100 μl of ABTS/H2O2 solution to each well. • 19. Incubate 10 to 30 minutes with shaking. Remove any bubbles. • 20. If necessary stop reaction with the addition of 100 μl 0.2 M HCl per well. • 21.

[18] = system: HT-29 human colon cancer cells; test: HT-29 Model; format: in vivo, nude mice; conditions: HT-29 assay A

T3 sequence (P04626 720-987 limits assumed, change not shown): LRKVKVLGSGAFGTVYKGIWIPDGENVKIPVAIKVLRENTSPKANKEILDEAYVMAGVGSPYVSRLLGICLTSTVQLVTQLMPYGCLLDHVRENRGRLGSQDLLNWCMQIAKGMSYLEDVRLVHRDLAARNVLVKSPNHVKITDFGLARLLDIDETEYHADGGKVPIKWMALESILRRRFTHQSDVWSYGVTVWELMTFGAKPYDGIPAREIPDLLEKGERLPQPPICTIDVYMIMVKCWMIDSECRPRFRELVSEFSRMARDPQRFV
Sequence of EGFR (P00533 25-1210, species assumed): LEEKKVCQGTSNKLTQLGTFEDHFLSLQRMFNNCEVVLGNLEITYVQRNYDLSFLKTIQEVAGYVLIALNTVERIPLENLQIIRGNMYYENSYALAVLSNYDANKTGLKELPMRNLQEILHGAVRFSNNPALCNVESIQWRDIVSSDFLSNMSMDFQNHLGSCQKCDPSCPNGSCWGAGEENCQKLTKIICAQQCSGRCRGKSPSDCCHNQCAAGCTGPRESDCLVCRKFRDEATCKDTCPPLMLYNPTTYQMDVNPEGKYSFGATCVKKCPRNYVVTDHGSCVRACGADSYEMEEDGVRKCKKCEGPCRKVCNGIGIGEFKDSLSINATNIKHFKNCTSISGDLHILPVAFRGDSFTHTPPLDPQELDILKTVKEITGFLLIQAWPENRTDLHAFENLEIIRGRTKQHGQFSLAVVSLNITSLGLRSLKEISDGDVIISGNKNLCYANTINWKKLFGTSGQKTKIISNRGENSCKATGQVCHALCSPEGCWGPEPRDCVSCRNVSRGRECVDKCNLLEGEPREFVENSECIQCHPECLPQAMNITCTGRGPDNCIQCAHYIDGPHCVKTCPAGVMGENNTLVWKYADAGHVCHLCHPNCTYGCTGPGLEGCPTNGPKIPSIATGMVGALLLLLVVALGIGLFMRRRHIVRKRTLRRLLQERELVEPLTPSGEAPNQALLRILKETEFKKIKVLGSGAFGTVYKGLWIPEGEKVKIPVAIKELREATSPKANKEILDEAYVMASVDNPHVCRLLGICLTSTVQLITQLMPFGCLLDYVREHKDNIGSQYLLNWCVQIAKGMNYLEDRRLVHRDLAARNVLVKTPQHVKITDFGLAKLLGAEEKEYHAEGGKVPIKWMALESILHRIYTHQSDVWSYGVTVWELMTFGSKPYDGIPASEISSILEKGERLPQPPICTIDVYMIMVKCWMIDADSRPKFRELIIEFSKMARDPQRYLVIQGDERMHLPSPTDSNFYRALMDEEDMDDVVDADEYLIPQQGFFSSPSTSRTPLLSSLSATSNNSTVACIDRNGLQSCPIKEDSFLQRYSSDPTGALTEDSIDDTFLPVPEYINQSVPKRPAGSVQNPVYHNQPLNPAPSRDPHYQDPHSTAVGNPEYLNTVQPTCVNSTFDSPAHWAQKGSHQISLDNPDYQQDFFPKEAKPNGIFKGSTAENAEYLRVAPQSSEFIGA
T2 sequence (P00533 25-1210): as the sequence (P00533 25-1210, species assumed) above
T4 sequence (P09619 33-1106): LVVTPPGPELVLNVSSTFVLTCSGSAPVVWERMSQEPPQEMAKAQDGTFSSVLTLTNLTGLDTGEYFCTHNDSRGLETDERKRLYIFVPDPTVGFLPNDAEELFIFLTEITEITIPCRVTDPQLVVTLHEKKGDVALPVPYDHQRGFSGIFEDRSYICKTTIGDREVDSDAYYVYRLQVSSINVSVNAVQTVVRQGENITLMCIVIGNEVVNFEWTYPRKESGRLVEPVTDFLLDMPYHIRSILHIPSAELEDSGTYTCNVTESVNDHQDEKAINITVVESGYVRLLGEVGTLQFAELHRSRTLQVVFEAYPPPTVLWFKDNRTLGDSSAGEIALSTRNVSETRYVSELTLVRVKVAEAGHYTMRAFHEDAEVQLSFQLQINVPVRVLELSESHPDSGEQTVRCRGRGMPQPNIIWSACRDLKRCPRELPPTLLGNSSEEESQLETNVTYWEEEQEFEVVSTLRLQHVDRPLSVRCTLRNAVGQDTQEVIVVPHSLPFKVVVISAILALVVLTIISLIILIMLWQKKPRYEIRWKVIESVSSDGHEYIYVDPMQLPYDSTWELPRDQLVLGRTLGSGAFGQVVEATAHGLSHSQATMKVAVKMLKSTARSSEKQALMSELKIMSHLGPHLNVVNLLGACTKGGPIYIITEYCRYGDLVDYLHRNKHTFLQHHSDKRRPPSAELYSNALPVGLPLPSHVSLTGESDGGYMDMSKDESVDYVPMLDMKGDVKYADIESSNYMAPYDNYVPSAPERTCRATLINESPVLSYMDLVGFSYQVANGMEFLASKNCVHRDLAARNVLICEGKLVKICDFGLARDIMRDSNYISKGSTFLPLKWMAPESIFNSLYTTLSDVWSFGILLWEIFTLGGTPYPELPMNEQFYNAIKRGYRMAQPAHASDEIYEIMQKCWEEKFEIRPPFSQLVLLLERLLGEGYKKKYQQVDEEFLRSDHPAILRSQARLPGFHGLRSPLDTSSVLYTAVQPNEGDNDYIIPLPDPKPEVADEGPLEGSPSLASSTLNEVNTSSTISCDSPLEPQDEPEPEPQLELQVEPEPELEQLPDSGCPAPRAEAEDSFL
T1 sequence (P10721 26-976): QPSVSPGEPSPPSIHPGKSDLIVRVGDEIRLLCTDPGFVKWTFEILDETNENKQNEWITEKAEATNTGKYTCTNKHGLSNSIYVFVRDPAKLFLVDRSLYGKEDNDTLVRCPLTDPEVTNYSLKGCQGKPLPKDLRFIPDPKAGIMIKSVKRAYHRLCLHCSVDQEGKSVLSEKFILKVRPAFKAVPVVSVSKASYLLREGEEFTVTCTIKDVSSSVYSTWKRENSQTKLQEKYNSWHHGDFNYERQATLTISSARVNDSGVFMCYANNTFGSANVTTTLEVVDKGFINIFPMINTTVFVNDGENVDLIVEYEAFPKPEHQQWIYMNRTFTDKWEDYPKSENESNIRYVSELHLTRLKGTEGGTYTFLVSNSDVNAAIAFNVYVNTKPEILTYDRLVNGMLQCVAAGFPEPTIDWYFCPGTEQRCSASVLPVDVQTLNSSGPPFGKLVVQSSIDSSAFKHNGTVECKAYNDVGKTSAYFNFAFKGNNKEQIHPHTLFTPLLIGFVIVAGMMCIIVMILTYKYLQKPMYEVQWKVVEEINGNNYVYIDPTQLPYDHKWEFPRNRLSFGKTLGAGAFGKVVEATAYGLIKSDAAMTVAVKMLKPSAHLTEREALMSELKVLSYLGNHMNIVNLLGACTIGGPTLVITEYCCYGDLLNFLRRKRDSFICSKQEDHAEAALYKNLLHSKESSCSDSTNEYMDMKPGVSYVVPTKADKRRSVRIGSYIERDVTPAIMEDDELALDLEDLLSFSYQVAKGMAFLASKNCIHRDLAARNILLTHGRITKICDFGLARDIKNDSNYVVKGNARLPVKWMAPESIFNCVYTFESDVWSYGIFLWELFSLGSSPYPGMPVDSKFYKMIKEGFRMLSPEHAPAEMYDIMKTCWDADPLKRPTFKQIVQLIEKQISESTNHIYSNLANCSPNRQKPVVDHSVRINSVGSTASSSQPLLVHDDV

For `Cc1ccc(-c2cc(C(F)(F)F)nn2-c2ccc(S(N)(=O)=O)cc2)cc1` [Celecoxib], the “tumor Volume” value ([1]; 10 ppm in the diet from day 10, day 14) was 0.124 mL, the “tumor Volume” value ([1]; 10 ppm in the diet from day 10, day 22) was 0.25 mL and the “tumor Volume” value ([1]; 10 ppm in the diet from day 10, day 28) was 0.36 mL. For the same compound, the “tumor Volume” value ([1]; 10 ppm in the diet from day 10, day 35) was 0.57 mL, the “tumor Volume” value ([1]; 10 ppm in the diet from day 10, day 42) was 0.89 mL and the “tumor Volume” value ([1]; 10 ppm in the diet from day 10, day 50) was 1.49 mL. For the same compound, the “tumor Volume” value ([1]; 40 ppm in the diet from day 10, day 14) was 0.125 mL, the “tumor Volume” value ([1]; 40 ppm in the diet from day 10, day 22) was 0.19 mL and the “tumor Volume” value ([1]; 40 ppm in the diet from day 10, day 28) was 0.27 mL. The “tumor Volume” value ([1]; 40 ppm in the diet from day 10, day 35) was 0.4 mL, the “tumor Volume” value ([1]; 40 ppm in the diet from day 10, day 42) was 0.68 mL and the “tumor Volume” value ([1]; 40 ppm in the diet from day 10, day 50) was 1.04 mL. The “tumor Volume” value ([1]; 160 ppm in the diet from day 10, day 14) was 0.120 mL, the “tumor Volume” value ([1]; 160 ppm in the diet from day 10, day 22) was 0.14 mL and the “tumor Volume” value ([1]; 160 ppm in the diet from day 10, day 28) was 0.21 mL. The “tumor Volume” value ([1]; 160 ppm in the diet from day 10, day 35) was 0.3 mL, the “tumor Volume” value ([1]; 160 ppm in the diet from day 10, day 42) was 0.49 mL and the “tumor Volume” value ([1]; 160 ppm in the diet from day 10, day 50) was 0.8 mL. The “effect in combination with a cytotoxic agent (cyclophosphamide)” value ([1]; celecoxib in the diet, cytoxin i.p. 50 mg/kg on days 5, 7 and 9) was “positive benefit”, the “effect on lung metastasis” value ([2]; 160 ppm in the diet) was “did not affect” and the “reduction of surface metastasis” value ([2]; 480-3200 ppm in the diet) was “more than 50%”. For the same compound, the “size of the metastasic lesions in the lung” value ([2]; histopathological analysis) was “dose-dependently reduced”.

With `CCN(CC)CCNC(=O)c1c(C)[nH]c(/C=C2\C(=O)Nc3ccc(F)cc32)c1C` [Compound 80] the “tumor response to treatment” value ([3]; 80 mg/kg/day oral) was “arrested or greatly slowed”, the “% Inhibition” value ([3]; initial tumor volume 550 mm^3, 80 mg/kg once daily oral, day 30, P 0.001) was 53 (30) % and the “PDGFRβ tyrosine phosphorylation in established tumors” value ([3]; oral administration) was “strongly inhibited”. The “levels of phosphorylated (activated) phospholipase C gamma (PLC-γ) in tumors” value ([3]; oral administration) was “reduced”, the IC50 [4] was 10 µM and the “% Inhibition (lung weight)” value [5] was 50%. For the same compound, the “% Inhibition” value ([6]; 40 mg/kg daily oral, tumors 400 mm^3 at start, P 0.028) was 84%, the “% Inhibition” value ([6]; 40 mg/kg twice weekly oral, tumors 400 mm^3 at start, NS) was 36% and the “% Inhibition” value ([6]; 80 mg/kg daily oral, tumors 400 mm^3 at start, P 0.039) was 91%. The “% Inhibition” value ([6]; 80 mg/kg once weekly oral, tumors 400 mm^3 at start, NS) was 0%, the “% Inhibition” value ([6]; 80 mg/kg twice weekly oral, tumors 400 mm^3 at start, NS) was 19% and the “tumor response to treatment” value ([6]; 80 mg/kg/day oral) was “regressed”. For the same compound, the “% Inhibition” value ([6]; 160 mg/kg once weekly oral, tumors 400 mm^3 at start, NS) was 17%, the “% Inhibition” value ([6]; 160 mg/kg twice weekly oral, tumors 400 mm^3 at start, P 0.085) was 52% and the “% Inhibition” value ([6]; initial tumor volume 370 mm^3, 80 mg/kg once daily oral, day 54, P 0.028) was 77 (54) %. The IC50 [7] was 9.5 µM, the IC50 [8] was 8.9 µM and the “effect on VEGF-mediated HUVEC survival” value [9] was “inhibited VEGF-mediated HUVEC survival in a dose-dependent manner”. For the same compound, the “tumor response to treatment” value ([10]; 80 mg/kg/day oral) was “regressed”, the “efficacy against established A431 tumors versus 80 mg/kg/day dose” value ([10]; 160 mg/kg/day, preliminary experiments) was “not more efficacious” and the “complete regression of the tumors” value ([10]; initial 100 mm^3, 80 mg/kg/day for 21 days) was “six of the eight animals”. The “% Inhibition of tumor growth” value ([10]; initial tumor volume 100 mm^3, 10 mg/kg/day oral, day 40, P 0.059) was 61 (40) %, the “% Inhibition of tumor growth” value ([10]; initial tumor volume 100 mm^3, 40 mg/kg/day oral, day 40, P 0.015) was 75 (40) % and the “% Inhibition of tumor growth” value ([10]; initial tumor volume 100 mm^3, 80 mg/kg/day oral, day 40, P 0.002) was 93 (40) %. The “% Inhibition of tumor growth” value ([10]; initial tumor volume 400 mm^3, 20 mg/kg/day oral, day 36, P 0.130) was 51 (36) %, the “% Inhibition of tumor growth” value ([10]; initial tumor volume 400 mm^3, 40 mg/kg/day oral, day 36, P 0.003) was 74% and 74 (36) % and the “% Inhibition of tumor growth” value ([10]; initial tumor volume 400 mm^3, 80 mg/kg/day oral, day 36, P 0.001) was 84% and 84 (36) %. For the same compound, the “tumor regrowth after end of treatment” value ([10]; the six animals with complete regression) was “did not regrow during a 110-day observation period”, the “response of regrown tumors to a second round of treatment” value ([10]; two animals with tumors regrown to 2000-3000 mm^3) was “regressed” and the SCF-stimulated c-kit phosphorylation [11] was “inhibited”. The “tumor response to treatment” value ([12]; 80 mg/kg/day oral) was “arrested or greatly slowed”, the “% Inhibition” value ([12]; initial tumor volume 300 mm^3, 80 mg/kg once daily oral, day 54, P 0.003) was 61 (54) % and the IC50 [13] was 7.9 µM.

In the case of `Cc1[nH]c(/C=C2\C(=O)Nc3ccc(-c4ccccc4)cc32)c(C)c1C(=O)NCCCn1ccnc1` [Example 58, 2,4-Dimethyl-5-(2-oxo-5-phenyl-1,2-dihydroindol-3-ylidenemethyl)-1H-pyrrole-3-carboxylic Acid (3-imidazol-1-ylpropyl)amide], the IC50 [14] is reported as over 100 µM, the IC50 [15] is reported as over 100 µM and the IC50 [16] is reported as over 100 µM.

For `CCN(CC)CCNC(=O)c1c(C)[nH]c(/C=C2\C(=O)Nc3cc(-c4cc(Cl)cc(Cl)c4)ccc32)c1C` [Example 62, 5-[6-(3,5-Dichlorophenyl)-2-oxo-1,2-dihydroindol-3-ylidenemethyl]-2,4-dimethyl-1H-pyrrole-3-carboxylic Acid (2-diethylaminoethyl)amide], the IC50 [14] was over 100 µM, the IC50 [15] was over 100 µM and the IC50 [16] was over 100 µM.

Compound `CCN(CC)CCNC(=O)c1c(C)[nH]c(/C=C2\C(=O)Nc3cc(-c4cccnc4)ccc32)c1C` [Example 63, 2,4-Dimethyl-5-(2-oxo-6-pyridin-3-yl-1,2-dihydroindol-3-ylidenemethyl)-1H-pyrrole-3-carboxylic Acid (2-diethylaminoethyl)amide] has an IC50 [14] of over 100 µM, an IC50 [17] of under 780 nM and an IC50 [16] of over 100 µM.

`Cc1cc(C)c(/C=C2\C(=O)N(CN3CCN(C)CC3)c3ccccc32)[nH]1` [Example 205, (3Z)-3-[(3,5-dimethyl-1H-pyrrol-2-yl)-methylidene]-1-[1-(4-methylpiperazinyl)methyl]-dihydro-2H-indol-2-one] gave a melting point of 160 to 164 °C.

Work on `Cc1cc(C)c(/C=C2\C(=O)N(CN3CCCC3)c3ccccc32)[nH]1` [Example 206, (3Z)-3-[(3,5-dimethyl-1H-pyrrol-2-yl)-methylidene]-1-(1-pyrrolidinylmethyl)-1,3-dihydro-2H-indol-2-one] yielded a melting point of 129 to 132 °C.

In the case of `NS(=O)(=O)c1ccc(-n2nc(C(F)(F)F)cc2-c2ccc(Cl)cc2)cc1` [SC-58236, 4-[5-(4-chorophenyl)-3-(trifluoromethyl)-1H-pyrazole-1-yl]benzenesulfonamide], the “reduction of tumor volume” value ([1]; HT-29 assay A) is reported as 89% and the “formation of lung metastasis” value [18] is reported as “completely inhibited”.

With `COc1ccc2c(c1)c(CC(=O)O)c(C)n2C(=O)c1ccc(Cl)cc1` [indomethacin] the “inhibition of tumor formation” value ([1]; 2 mg/kg/day in the drinking water, near the maximum tolerated dose) was 77% and the “formation of lung metastasis” value [18] was “ineffective”.
